Columns and labels:
[1] = system: patients with unresectable metastatic PDAC; set-up: method as in PMID 35803294, PMID 36982773; conditions: cited from earlier work
[2] = Population pharmacokinetic analysis of certepetide plasma concentrations (first-in-human trial NCT03517176); assay type: in vivo; conditions: for WT on Vc, effect of weight on Vc / WT on Vp, effect of weight on Vp: power model exponent
Description: The clinical aspects of this study were conducted at 3 clinical sites in Australia. All subjects gave their informed consent. The study enrolled subjects with metastatic PDAC and was a rising dose design, with certepetide doses of 0.2, 0.8, 1.6, and 3.2 mg/kg body weight. Each subject received a certepetide monotherapy run‐in followed by 28‐day cycles of certepetide with standard‐of‐care chemotherapy (nab‐paclitaxel and gemcitabine), as previously described.[19] Each 28‐day cycle involved dosing with nab‐paclitaxel, gemcitabine, and certepetide on days 1, 8, and 15. In each dosing instance, nab‐paclitaxel was given first intravenously at a dose of 125 mg/m^2 over 30 minutes. This was immediately followed by the administration of certepetide as a slow intravenous push over 1 minute. Gemcitabine was given as an intravenous infusion at a dose of 1000 mg/m^2 over 30 minutes. Samples for PK analysis were collected before certepetide dosing and at 3, 15, and 30 minutes and 1, 3, and 6 hours after completion of the certepetide infusion. PK collections were performed during a monotherapy run‐in period and on day 1 of chemotherapy cycles 1 and 6. Modeling was performed with all available data.
Certepetide concentrations in human plasma were determined using a liquid chromatography‐tandem mass spectrometry method across a concentration range of 50.0‐2500 ng/mL, with 50.0 ng/mL as the lower limit of quantification. Briefly, a plasma sample was spiked with a deuterated internal standard and then precipitated by methanol. After centrifugation, the supernatant was transferred to a clean tube and evaporated under nitrogen. Following reconstitution with 5% methanol:water, the sample was injected into a Shimadzu Nexera UPLC that used a Kinetex EVO‐C18 column for separation using first mobile phase A (0.1% formic acid in deionized water) followed by mobile phase B (0.1% formic acid in methanol). The multiple reaction monitoring transition was monitored on an ABSciex QTRAP 5500 mass spectrometer. The transitions used for certepetide and deuterated certepetide (+6) were 494.9 → 70.1 and 497.7 → 75.0, respectively. For intraday runs, the average accuracy and precision were 10.2% and 9.6%, respectively, at a concentration of 150 ng/mL. The inter‐day accuracy and precision were 10.2% and 9.7%, respectively.
The PK analysis dataset was composed of actual dates and times of dose and concentration samples. Post‐dose PK concentration data below the limit of quantification were accounted for using the M1 method (ie, excluded from the analysis).[22] Subject covariates at baseline were derived from the source data at the baseline visit, the screening visit, or another visit before the start of certepetide administration.
NONMEM software (version 7.5.1, ICON Development Solutions)[23] was used to perform nonlinear mixed‐effects modeling. Data assembly, graphical analyses, and model simulations were performed using NONMEM (version 7.5.1) and R (version 4.3.1).
A 2‐compartment model with linear elimination was used as the starting point for model development. Interindividual variability was included in structural model parameters (eg, central volume of distribution [Vc], clearance [CL], peripheral volume of distribution [Vp], and distribution clearance [Q]). Interindividual variability, assumed to have log‐normal distribution, was calculated using Equation (1). (1) θP,i=θP,typical·e^ηP,i
The residual variance was initially modeled using an additive and proportional error model (Equation 4), which accounted for […], assay error, model misspecification, and any potential data issues (eg, incorrect dose or sample collection times). (4) Yij=IPREDij×1+ε1,ij+ε2,ij
Model development continued by adding covariates in a stepwise fashion and assessing the change in objective function value (OFV). […]

[3] = autoradiography; ref data on file; cited from earlier work
Description: (§1) Certepetide is administered as a slow intravenous push over 1 minute shortly after the administration of chemotherapy and/or immunotherapy. Certepetide is thought to be metabolized into its component amino acids, as expected for small peptides.

[4] = system: plasma proteins; conditions: ref data on file; cited from earlier work
Description: as §1

[5] = final population PK model, reference 70 kg
[6] = interim population PK model with body weight and age on clearance, typical value

CC(=O)N[C@H]1CSSC[C@@H](C(N)=O)NC(=O)[C@H](CC(=O)O)NC(=O)[C@@H]2CCCN2C(=O)CNC(=O)[C@H](CCCCN)NC(=O)[C@H](CC(=O)O)NC(=O)CNC(=O)[C@H](CCCNC(=N)N)NC1=O [Certepetide]
Patients with ≥50% reduction in CA19-9 ([1]; cycle 5, day 1, certepetide with nab-paclitaxel and gemcitabine): 20 out of 22
Dose-limiting toxicities associated with the study drug ([1]; doses 0.2-3.2 mg/kg): no dose‐limiting toxicities
Dose linearity of PK ([2]; concentration-time and dose-normalized curves at 0.2, 0.8, 1.6 and 3.2 mg/kg): linear PKs
Vc, central volume of distribution ([2]; final population PK model (2-compartment, linear elimination, NONMEM), 31 patients with metastatic PDAC, 0.2-3.2 mg/kg IV push over 1 min with nab-paclitaxel and gemcitabine, plasma LC-MS/MS, typical value, reference 70 kg): 5.87 L
Q, intercompartmental clearance ([2]; final population PK model, 31 patients with metastatic PDAC, IV, typical value): 24.9 L/h
CLR, renal clearance (dependent on CrCL) ([2]; final population PK model, 31 patients with metastatic PDAC, IV, typical value at reference CrCL 90 mL/min, purely model-derived): 4.32 L/h
Vp, peripheral volume of distribution ([2]; final population PK model, 31 patients with metastatic PDAC, IV, typical value, reference 70 kg): 10.3 L
CLNR, nonrenal clearance (independent of CrCL) ([2]; final population PK model, 31 patients with metastatic PDAC, IV, typical value, purely model-derived): 2.56 L/h
WT on Vc, effect of weight on Vc [2, 5]: 0.933
WT on Vp, effect of weight on Vp [2, 5]: 0.879
clearance ([2]; human, plasma, iv, interim population PK model with body weight and age on clearance, typical value, reference 70 kg, 60 years, read-out: CL, clearance (converted)): 118 mL/min
Vc, central volume of distribution ([2]; interim population PK model with body weight and age on clearance, 31 patients with metastatic PDAC, IV, typical value): 5.87 L
Q, intercompartmental clearance [2, 6]: 25.0 L/h
Vp, peripheral volume of distribution [2, 6]: 10.3 L
WT on Vc, effect of weight on Vc ([2]; interim population PK model): 0.940
WT on Vp, effect of weight on Vp ([2]; interim population PK model): 0.885
Route of elimination [3]: primarily undergoes renal elimination
Plasma protein binding [4]: does not bind to plasma proteins
